Tests used:
[1] = molecular target: T1, Amine oxidase [flavin-containing] A (Homo sapiens, UniProt P21397); assay type: functional
T1 sequence (P21397 whole entry): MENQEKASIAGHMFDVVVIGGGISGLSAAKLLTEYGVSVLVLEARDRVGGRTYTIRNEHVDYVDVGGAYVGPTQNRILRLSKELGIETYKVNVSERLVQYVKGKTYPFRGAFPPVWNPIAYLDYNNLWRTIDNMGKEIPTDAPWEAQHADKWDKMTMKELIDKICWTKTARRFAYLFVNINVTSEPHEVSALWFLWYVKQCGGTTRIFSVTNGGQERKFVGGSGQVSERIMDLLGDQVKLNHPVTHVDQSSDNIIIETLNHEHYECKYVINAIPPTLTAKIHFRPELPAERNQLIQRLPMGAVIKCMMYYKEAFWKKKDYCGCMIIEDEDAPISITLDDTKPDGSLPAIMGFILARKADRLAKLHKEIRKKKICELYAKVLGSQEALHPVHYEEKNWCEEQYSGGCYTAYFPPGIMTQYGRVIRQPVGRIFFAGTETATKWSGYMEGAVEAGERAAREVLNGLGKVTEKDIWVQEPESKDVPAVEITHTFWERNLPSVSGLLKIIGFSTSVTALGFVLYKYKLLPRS

[2] = molecular target: T2, Neuropeptide Y receptor type 1 (Homo sapiens, UniProt P25929)
T2 sequence (P25929 whole entry): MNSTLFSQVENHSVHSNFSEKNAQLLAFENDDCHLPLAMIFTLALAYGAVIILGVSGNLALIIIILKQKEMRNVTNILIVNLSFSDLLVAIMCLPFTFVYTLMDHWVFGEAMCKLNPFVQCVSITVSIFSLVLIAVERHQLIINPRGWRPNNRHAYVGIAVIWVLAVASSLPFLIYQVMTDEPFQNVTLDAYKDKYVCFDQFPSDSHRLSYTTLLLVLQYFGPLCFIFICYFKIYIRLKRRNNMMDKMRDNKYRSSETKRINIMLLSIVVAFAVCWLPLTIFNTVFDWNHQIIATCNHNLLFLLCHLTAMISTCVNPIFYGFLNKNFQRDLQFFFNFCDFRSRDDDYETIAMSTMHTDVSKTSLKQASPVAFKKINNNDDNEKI

[3] = molecular target: Beta-2 adrenergic receptor (Homo sapiens, UniProt P07550)
Beta-2 adrenergic receptor, sequence (P07550 whole entry): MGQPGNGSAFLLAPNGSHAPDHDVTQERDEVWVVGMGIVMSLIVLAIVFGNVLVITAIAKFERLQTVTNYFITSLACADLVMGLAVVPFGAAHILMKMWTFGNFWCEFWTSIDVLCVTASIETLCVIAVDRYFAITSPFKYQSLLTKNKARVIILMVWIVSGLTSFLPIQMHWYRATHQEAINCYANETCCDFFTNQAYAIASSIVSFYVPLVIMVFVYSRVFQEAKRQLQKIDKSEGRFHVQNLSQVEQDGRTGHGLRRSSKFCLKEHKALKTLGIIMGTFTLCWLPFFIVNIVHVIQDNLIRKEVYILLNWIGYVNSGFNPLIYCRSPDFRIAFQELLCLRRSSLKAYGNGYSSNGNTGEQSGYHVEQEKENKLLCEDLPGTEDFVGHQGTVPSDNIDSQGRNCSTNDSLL

[4] = molecular target: 5-hydroxytryptamine receptor 2B (Homo sapiens, UniProt P41595); assay type: functional, cell-based
5-hydroxytryptamine receptor 2B, sequence (P41595 whole entry): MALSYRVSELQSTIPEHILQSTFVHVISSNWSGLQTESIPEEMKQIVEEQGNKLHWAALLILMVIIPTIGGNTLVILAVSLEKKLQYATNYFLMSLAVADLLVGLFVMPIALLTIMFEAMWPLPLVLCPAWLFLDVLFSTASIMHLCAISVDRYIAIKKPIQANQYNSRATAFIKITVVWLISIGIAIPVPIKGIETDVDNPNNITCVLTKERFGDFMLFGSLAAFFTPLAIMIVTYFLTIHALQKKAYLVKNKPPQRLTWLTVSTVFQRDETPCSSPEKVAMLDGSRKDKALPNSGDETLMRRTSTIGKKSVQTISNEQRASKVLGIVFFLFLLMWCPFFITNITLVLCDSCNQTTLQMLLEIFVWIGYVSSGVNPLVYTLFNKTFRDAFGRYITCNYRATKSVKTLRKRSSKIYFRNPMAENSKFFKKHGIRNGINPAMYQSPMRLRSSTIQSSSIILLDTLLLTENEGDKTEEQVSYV

Histamine H2 receptor = Histamine H2 receptor (Homo sapiens, UniProt P25021); assay type: functional, cell-based
Histamine H2 receptor, sequence (P25021 whole entry): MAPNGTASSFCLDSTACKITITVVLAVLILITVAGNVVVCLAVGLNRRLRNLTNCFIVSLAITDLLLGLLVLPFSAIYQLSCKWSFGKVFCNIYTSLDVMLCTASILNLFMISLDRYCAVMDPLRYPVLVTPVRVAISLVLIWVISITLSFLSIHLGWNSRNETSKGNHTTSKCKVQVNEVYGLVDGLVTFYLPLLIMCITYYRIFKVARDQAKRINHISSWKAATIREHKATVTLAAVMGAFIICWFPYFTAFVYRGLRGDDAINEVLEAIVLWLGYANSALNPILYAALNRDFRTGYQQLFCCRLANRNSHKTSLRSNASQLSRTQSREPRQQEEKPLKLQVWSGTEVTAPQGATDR

Progesterone receptor = molecular target: T3, Progesterone receptor (Homo sapiens, UniProt P06401); assay type: functional
T3 sequence (P06401 whole entry): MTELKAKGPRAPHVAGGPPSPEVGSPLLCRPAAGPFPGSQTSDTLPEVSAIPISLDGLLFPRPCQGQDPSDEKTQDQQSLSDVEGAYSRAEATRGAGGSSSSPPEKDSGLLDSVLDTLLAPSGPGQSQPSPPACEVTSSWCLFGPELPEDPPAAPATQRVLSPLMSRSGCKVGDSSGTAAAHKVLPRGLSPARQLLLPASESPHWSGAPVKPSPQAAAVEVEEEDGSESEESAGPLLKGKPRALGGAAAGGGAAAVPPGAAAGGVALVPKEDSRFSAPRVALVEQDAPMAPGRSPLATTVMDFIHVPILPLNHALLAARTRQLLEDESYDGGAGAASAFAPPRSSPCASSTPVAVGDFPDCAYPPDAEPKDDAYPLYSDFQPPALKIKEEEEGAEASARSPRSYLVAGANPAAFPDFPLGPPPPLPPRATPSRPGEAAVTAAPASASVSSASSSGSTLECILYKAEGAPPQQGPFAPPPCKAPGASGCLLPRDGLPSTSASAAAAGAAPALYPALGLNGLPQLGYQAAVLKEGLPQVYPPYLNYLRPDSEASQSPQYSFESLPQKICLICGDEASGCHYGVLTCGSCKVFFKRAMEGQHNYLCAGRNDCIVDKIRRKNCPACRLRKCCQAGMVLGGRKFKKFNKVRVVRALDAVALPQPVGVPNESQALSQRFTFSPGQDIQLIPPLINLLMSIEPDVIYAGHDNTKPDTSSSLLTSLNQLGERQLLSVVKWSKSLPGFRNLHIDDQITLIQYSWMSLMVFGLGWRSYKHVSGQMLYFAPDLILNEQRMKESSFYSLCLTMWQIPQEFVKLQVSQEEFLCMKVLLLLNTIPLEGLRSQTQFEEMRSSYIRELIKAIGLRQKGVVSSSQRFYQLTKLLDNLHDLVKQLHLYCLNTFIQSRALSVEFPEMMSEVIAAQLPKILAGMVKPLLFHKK

[5] = molecular target: T4, Cholecystokinin receptor type A (Homo sapiens, UniProt P32238)
T4 sequence (P32238 whole entry): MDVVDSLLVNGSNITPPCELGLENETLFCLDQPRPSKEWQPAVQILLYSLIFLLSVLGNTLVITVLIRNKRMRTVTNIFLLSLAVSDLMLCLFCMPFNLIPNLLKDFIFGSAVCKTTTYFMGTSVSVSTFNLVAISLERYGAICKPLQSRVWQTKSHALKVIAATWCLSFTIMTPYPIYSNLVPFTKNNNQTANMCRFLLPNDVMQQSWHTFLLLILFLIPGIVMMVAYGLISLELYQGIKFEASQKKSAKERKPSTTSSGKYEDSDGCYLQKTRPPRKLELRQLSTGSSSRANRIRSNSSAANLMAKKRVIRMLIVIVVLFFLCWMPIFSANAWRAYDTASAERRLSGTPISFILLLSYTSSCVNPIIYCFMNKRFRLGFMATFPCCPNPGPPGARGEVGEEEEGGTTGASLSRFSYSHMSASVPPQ

Histamine H3 receptor = Histamine H3 receptor (Homo sapiens, UniProt Q9Y5N1)
Histamine H3 receptor, sequence (Q9Y5N1 whole entry): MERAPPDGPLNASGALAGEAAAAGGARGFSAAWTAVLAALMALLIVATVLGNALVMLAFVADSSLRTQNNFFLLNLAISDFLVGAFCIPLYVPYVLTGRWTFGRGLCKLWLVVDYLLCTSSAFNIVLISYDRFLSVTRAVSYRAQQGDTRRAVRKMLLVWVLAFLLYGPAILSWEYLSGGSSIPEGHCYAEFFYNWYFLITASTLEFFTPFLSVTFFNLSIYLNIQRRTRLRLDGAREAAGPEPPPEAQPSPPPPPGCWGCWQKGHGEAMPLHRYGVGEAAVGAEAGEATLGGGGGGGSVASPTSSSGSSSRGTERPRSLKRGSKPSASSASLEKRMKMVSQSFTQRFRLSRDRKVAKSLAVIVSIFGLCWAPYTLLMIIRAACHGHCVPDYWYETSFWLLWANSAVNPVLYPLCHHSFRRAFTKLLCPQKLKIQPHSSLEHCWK

[6] = molecular target: Sodium-dependent noradrenaline transporter (Homo sapiens, UniProt P23975)
Sodium-dependent noradrenaline transporter, sequence (P23975 whole entry): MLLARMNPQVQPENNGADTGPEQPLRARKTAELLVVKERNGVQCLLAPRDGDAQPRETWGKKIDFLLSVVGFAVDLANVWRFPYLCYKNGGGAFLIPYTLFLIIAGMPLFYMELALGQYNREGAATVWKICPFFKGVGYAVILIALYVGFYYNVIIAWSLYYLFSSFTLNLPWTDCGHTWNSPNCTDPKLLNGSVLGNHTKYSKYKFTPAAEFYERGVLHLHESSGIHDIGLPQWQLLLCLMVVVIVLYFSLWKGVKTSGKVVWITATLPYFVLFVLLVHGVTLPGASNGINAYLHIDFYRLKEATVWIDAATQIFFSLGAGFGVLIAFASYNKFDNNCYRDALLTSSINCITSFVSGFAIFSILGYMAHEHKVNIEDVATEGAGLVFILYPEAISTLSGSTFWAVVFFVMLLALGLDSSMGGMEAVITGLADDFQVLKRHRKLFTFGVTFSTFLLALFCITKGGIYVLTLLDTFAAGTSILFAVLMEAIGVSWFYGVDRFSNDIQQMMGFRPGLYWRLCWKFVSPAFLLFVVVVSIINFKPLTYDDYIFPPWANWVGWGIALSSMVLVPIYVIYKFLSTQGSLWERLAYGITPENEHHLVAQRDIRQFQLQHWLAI

Adenosine receptor A2a = Adenosine receptor A2a (Homo sapiens, UniProt P29274)
Adenosine receptor A2a, sequence (P29274 whole entry): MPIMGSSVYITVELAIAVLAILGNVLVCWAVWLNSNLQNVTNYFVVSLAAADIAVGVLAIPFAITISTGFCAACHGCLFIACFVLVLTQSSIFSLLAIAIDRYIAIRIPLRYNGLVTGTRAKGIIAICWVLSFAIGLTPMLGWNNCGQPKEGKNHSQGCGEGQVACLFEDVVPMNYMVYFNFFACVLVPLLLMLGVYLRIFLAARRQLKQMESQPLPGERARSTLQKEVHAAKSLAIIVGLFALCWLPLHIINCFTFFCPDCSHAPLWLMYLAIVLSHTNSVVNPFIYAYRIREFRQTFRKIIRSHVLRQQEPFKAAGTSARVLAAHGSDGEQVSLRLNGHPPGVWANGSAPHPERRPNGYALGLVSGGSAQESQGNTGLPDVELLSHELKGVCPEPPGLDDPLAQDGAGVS

D(3) dopamine receptor = D(3) dopamine receptor (Homo sapiens, UniProt P35462)
D(3) dopamine receptor, sequence (P35462 whole entry): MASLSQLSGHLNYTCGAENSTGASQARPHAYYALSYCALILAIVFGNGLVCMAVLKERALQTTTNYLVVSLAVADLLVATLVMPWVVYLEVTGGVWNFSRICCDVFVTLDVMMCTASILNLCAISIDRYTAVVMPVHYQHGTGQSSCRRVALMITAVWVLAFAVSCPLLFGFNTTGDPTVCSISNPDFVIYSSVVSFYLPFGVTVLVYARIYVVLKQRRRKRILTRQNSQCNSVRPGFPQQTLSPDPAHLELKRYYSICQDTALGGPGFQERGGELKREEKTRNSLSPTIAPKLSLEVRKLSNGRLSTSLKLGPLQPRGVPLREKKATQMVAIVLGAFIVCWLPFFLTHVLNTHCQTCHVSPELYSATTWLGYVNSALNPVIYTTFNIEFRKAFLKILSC

[7] = molecular target: Glutamate receptor ionotropic, NMDA 1 (Rattus norvegicus, UniProt P35439)
Also: assay procedure not described here.

Row | SMILES | AC50 [1] [µM] | AC50 [2] [µM] | AC50 [3] [µM] | AC50 [4] [µM] | AC50 (Histamine H2 receptor) [µM] | AC50 (Progesterone receptor) [µM] | AC50 [5] [µM] | AC50 (Histamine H3 receptor) [µM] | AC50 [6] [µM] | AC50 (Adenosine receptor A2a) [µM] | AC50 (D(3) dopamine receptor) [µM] | AC50 [7] [µM]
1 | Cc1nnc(SCC2=C(C(=O)O)N3C(=O)[C@@H](NC(=O)Cn4cnnn4)[C@H]3SC2)s1 [CEFAZOLIN] | > 300 | > 30 | – | > 300 | > 30 | > 300 | > 300 | > 300 | > 300 | > 300 | > 300 | > 30
2 | Cc1nc(Nc2ncc(C(=O)Nc3c(C)cccc3Cl)s2)cc(N2CCN(CCO)CC2)n1 [DASATINIB] | > 30 | > 30 | > 10 | > 30 | > 30 | > 30 | 10.2 | 12.7 | 6.3 | > 30 | > 30 | > 10
3 | COc1ccccc1OC1(C)OC(=O)c2ccccc2O1 (centres undefined) [GUAIMESAL] | – | > 30 | > 30 | – | – | > 30 | > 30 | > 30 | > 30 | > 30 | – | –
4 | CCCCCCCN(CC)CCCC(O)c1ccc(NS(C)(=O)=O)cc1 (centres undefined) [IBUTILIDE] | > 30 | > 30 | > 30 | > 30 | > 30 | > 30 | > 30 | > 30 | > 30 | > 30 | 4.3 | > 30
5 | COc1cc(C(C)=O)ccc1OCCCN1CCC(c2noc3cc(F)ccc23)CC1 [ILOPERIDONE] | > 30 | – | > 10 | > 30 | – | > 30 | > 30 | > 30 | 1.63 | > 30 | 0.0373 | –
6 | COc1cc(C(=O)NS(=O)(=O)c2ccccc2C)ccc1Cc1cn(C)c2ccc(NC(=O)OC3CCCC3)cc12 [ZAFIRLUKAST] | > 10 | > 10 | > 10 | – | > 10 | 11.2 | > 10 | > 10 | > 10 | > 30 | – | > 10

Now from value to molecule:

Row | AC50 [1] [µM] | AC50 [2] [µM] | AC50 [3] [µM] | AC50 [4] [µM] | AC50 (Histamine H2 receptor) [µM] | AC50 (Progesterone receptor) [µM] | AC50 [5] [µM] | AC50 (Histamine H3 receptor) [µM] | AC50 [6] [µM] | AC50 (Adenosine receptor A2a) [µM] | AC50 (D(3) dopamine receptor) [µM] | AC50 [7] [µM] | SMILES
7 | > 30 | > 10 | > 10 | > 30 | > 10 | > 30 | > 30 | > 30 | > 30 | > 30 | > 30 | – | CCOc1nc2cccc(C(=O)O)c2n1Cc1ccc(-c2ccccc2-c2nnn[nH]2)cc1
8 | > 30 | > 30 | > 30 | > 30 | > 30 | > 30 | > 30 | > 30 | > 30 | > 30 | > 30 | > 30 | CC(=O)Nc1ccc(CC(=O)O)cc1 [ACTARIT]
9 | 26 | > 30 | > 30 | > 30 | > 30 | > 30 | > 30 | > 30 | > 30 | > 30 | > 30 | > 30 | CC(C(=O)O)c1ccc2oc(-c3ccc(Cl)cc3)nc2c1 (centres undefined) [BENOXAPROFEN]
10 | > 30 | > 30 | > 30 | > 30 | > 30 | > 30 | > 30 | > 30 | > 30 | > 30 | 26 | > 30 | CC=CC1=C(C(=O)O)N2C(=O)[C@@H](NC(=O)[C@H](N)c3ccc(O)cc3)[C@H]2SC1 [CEFPROZIL]
11 | > 10 | > 10 | > 10 | > 10 | > 10 | > 10 | > 10 | – | > 10 | > 10 | > 30 | > 10 | CNC(=C[N+](=O)[O-])NCCSCc1csc(CN(C)C)n1 [NIZATIDINE]
